Assay results from ChEMBL document CHEMBL1681684, “Structure based design of heat shock protein 90 inhibitors acting as anticancer agents” (Bioorg Med Chem, 2011).

Legend:
DU-145 [1] = test: Anticancer activity against human DU145 cells by MTT assay; assay type: functional, cell-based
SK-MEL-2 [2] = test: Anticancer activity against human SK-MEL-2 cells assessed as growth inhibition at 100 uM by MTT assay; assay type: functional
SK-OV-3 [3] = test: Anticancer activity against human SKOV3 cells assessed as growth inhibition at 100 uM by MTT assay; assay type: functional
HT-29 [4] = test: Anticancer activity against human HT-29 cells by MTT assay; assay type: functional, cell-based
SK-MEL-2 [5] = test: Anticancer activity against human SK-MEL-2 cells by MTT assay; assay type: functional, cell-based
DU-145 [6] = test: Anticancer activity against human DU145 cells assessed as growth inhibition at 100 uM by MTT assay; assay type: functional
A549 [7] = test: Anticancer activity against human A549 cells by MTT assay; assay type: functional, cell-based
A549 [8] = test: Anticancer activity against human A549 cells assessed as growth inhibition at 100 uM by MTT assay; assay type: functional
HT-29 [9] = test: Anticancer activity against human HT-29 cells assessed as growth inhibition at 100 uM by MTT assay; assay type: functional
SK-OV-3 [10] = test: Anticancer activity against human SKOV3 cells by MTT assay; assay type: functional, cell-based
HT-29 [11] = test: Anticancer activity against human HT-29 cells assessed as growth inhibition at 10 uM by MTT assay; assay type: functional
DU-145 [12] = test: Anticancer activity against human DU145 cells assessed as growth inhibition at 10 uM by MTT assay; assay type: functional
SK-MEL-2 [13] = test: Anticancer activity against human SK-MEL-2 cells assessed as growth inhibition at 10 uM by MTT assay; assay type: functional
MCF7 = test: Anticancer activity against human MCF7 cells by MTT assay; assay type: functional, cell-based

Structure (SMILES)	IC50 (DU-145 [1])	inhibition at 100 µM (SK-MEL-2 [2])	inhibition at 100 µM (SK-OV-3 [3])	IC50 (HT-29 [4])	IC50 (SK-MEL-2 [5])	inhibition at 100 µM (DU-145 [6])	IC50 (A549 [7])	inhibition at 100 µM (A549 [8])	inhibition at 100 µM (HT-29 [9])	IC50 (SK-OV-3 [10])	inhibition at 10 µM (HT-29 [11])	inhibition at 10 µM (DU-145 [12])	inhibition at 10 µM (SK-MEL-2 [13])	IC50 (MCF7)
O=S(=O)(NCCC(c1ccccc1)c1ccccc1)c1ccc(Cl)cc1	26.1 µM	77.8%	62%	18.8 µM	18.9 µM	73.5%	30.9 µM	65.7%	87.5%	35 µM				
CCOc1ccc(Nc2nc(NCc3ccccc3)c3ccccc3n2)cc1	19.2 µM	88%	91.8%	16.5 µM					92.9%		83.3%	58%	91.6%	
COc1cc(C2N(c3ccc(C)cc3)CCN2c2ccc(C)cc2)ccc1O	43.1 µM	58.3%	34.3%	27.6 µM	32.9 µM	40.7%	27.6 µM	51.9%	64.8%	> 100 µM				
CN(C)CCNc1nc(-c2ccc(C(C)(C)C)cc2)nc2ccccc12	> 50 µM	89.6%	92.3%	8.72 µM					93.4%		89.8%	86.5%	91.5%	
O=S(=O)(Nc1ccccc1Oc1ccc(Cl)cc1Cl)c1ccccc1	44 µM	43.9%	40.1%	65.1 µM	44.2 µM	52.6%	35.5 µM	55%	51.1%	> 100 µM				
COc1ccc(Nc2nc(NCc3ccco3)c3ccccc3n2)cc1	24.5 µM	89.3%	92.5%	0.902 µM					90.9%		64.2%	28.7%	22.8%	7.25 µM
O=S(=O)(NCCc1c[nH]c2ccc(F)cc12)c1ccc(Br)cc1OC(F)(F)F	39.4 µM	34%	22.5%	33.4 µM	45.8 µM	44.4%	55 µM	43.5%	63.5%	> 100 µM				
CCC(C)(C)c1ccc(O)c(NS(=O)(=O)c2ccccc2OC(F)(F)F)c1	> 100 µM	52.4%	46.4%	24.1 µM	53.6 µM	60.1%	38.8 µM	50.9%	37.5%	38.8 µM				
O=[N+]([O-])c1cccnc1Sc1ccccc1NS(=O)(=O)c1ccc(Cl)cc1Cl	53.9 µM	40.1%	44%	63.1 µM	42.3 µM	54.5%	26 µM	47.9%	44.6%	70 µM				
Fc1ccc(Nc2nc(NCc3ccccc3)c3ccccc3n2)cc1	23.4 µM	89.9%	91.3%	2.41 µM					93.4%		74.4%	38.2%	69.9%	
Oc1ccc(C2=Nc3ccccc3S[C@H](c3ccccc3)C2)cc1	30.6 µM	57.1%	51.6%	40.7 µM	47.1 µM	59.9%	33.2 µM	55.8%	67.9%	61.6 µM				
Oc1ccc(Nc2nc(NCc3ccco3)c3ccccc3n2)cc1	22.7 µM	86.2%	92.3%	14 µM					93.3%		67.6%	30.3%	39%	
Cc1cccc(Nc2nc(NCc3ccco3)c3ccccc3n2)c1	19.7 µM	78.7%	93.3%	10.1 µM					93.6%		77.9%	53.7%	77.6%	
O[C@H]1CCN(c2nc(Nc3cccc4c3CCCC4)c3ccccc3n2)C1	16.8 µM	79.5%	89.5%	7.12 µM	15.9 µM	88.7%	12.9 µM	88.8%	86.1%	16.8 µM				
COc1ccc(Nc2nc(NCc3ccccc3)c3ccccc3n2)cc1	21.3 µM	89.3%	92.3%	13.4 µM					92.9%		80.7%	52.2%	81.2%	
C[C@H](Nc1nc(N2CCNCC2)nc2ccccc12)c1ccccc1	12.6 µM	85.6%	86.6%	4.1 µM	5.14 µM	87.2%	13.3 µM	90.2%	86.5%	14.6 µM				
Oc1cccc(Nc2nc(NCc3ccccc3)c3ccccc3n2)c1	22.6 µM	78.9%	85.5%	15.8 µM					81.9%		61.3%	35%	46.7%	
COc1ccccc1N/N=C1/C(=O)N(C(N)=S)N=C1c1ccccc1	46.8 µM	61%	45.5%	48.5 µM	34.9 µM	48%	45.2 µM	51.9%	38%	76 µM				
